Data set [1] has as its target T1, hBChE (Homo sapiens, UniProt P06276). Kind of data set: hBChE binding kinetics: carbamoylation and decarbamoylation, initial velocity measurements. It counts as biochemical. The procedure: The progress curves for the time courses of product formation for the hydrolysis of butyrylthiocholine iodide were measured on an Agilent Cary 3500 UV–VIS spectrophotometer with Compact Peltier (thermostated at 25 °C) at 412 nm using a 0.6 mL cuvette (optical path–0.5 cm). 30 mmol/L Tris buffer pH 7.0 with 1 mg/mL BSA and 0.02% NaN3 was used and all dilutions were done in glass vessels (note: dilute hBChE solutions rapidly lose activity, presumably due to adsorption to plastic, preventing meaningful decarbamoylation assays. In our hands, under the above conditions only, the diluted and stock solutions of hBChE were stable for at least a month at room temperature.). Total volume in the cuvette was always 500 μL, and enzyme solutions that gave upon dilution v0 = (dA/dt) ≈ 0.5 (for carbamoylation) and ≈ 1 for (for decarbamoylation) were used. For carbamoylation experiments, 0.5–1 μL of enzyme stock, 5 μL of compound solution, and 484 μL of buffer were preincubated for the specified time, then 10 μL of the mixture of 25 mmol/L Ellman’s reagent (DTNB) and 20 mmol/L butyrylthiocholine (large excess to prevent substrate depletion) were added, quickly mixed, and measurement started. […] The data analysis followed the literature[63]^,[98].

A short description of data set [2]: Aqueous stability (UPLC). In kind it is physicochemical. The settings on record: for t1/2 in aqueous solution / k: PBS:EtOH = 80:20, 10 mmol/L; for k: pseudo-first order; for half-life: buffer, PBS:EtOH = 80:20, calculated half-lives only approximates, read-out: t1/2 in aqueous solution (converted). As for the experimental part:
For the aqueous stability determination, UPLC analyses were performed as described under Chemistry–General Information. The method used a Waters Acquity UPLC® HSS C18 SB column (2.1 mm× 50 mm, 1.8 μm) thermostated at 40 °C, with: injection volume, 5 μL; flow rate, 0.4 mL/min; detector λ, 220 nm; mobile phase A: 0.1% TFA (v/v) in MilliQ water; mobile phase B: MeCN. Gradient: 0–5 min, 20%–100% B; 5–6 min, 20% B.
Compound stock solutions (100 mmol/L) were prepared in absolute EtOH, while the internal standard (caffeine) was dissolved in PBS (0.1 mg/mL). The aqueous stability solutions were prepared by mixing 1200 μL PBS with internal standard, 150 μL absolute EtOH, and 150 μL compound stock solution in a HPLC vial to give 10 mmol/L compound concentration in PBS/EtOH = 80:20, which was injected immediately and then at hourly intervals for 48 h. The analyte AUCs were normalized on internal standard AUCs and compared with the timepoint zero. For the rate calculation, pseudo-first order kinetics were assumed.
For investigation of compound 8 stability in an aqueous medium, its stock solution (10,000 mg/L) was prepared in EtOH. 15 μL of the stock solution was mixed with 60 μL of caffeine (2500 mg/L in EtOH) and 1425 μL of the respective aqueous solution/buffer to achieve final concentration of 100 mg/L with 5% ethanol content. The UPLC analysis was carried as described above.

Data set [3] deals with caspase-3 activity in SH-SY5Y cells. The data set can be described thus: Caspase-3 activity in lysates of Aβ1–42-treated cells. In kind it is cell-based, human. The settings on record: 5 μmol/L compound, 5 μmol/L fibrillar Aβ1–42, 24 h. The procedure: (§1) Cell culture and treatments The human neuroblastoma SH-SY5Y cell line was purchased from American Type Culture Collection (Manassas, VA, USA). Cells were cultured in Advanced Dulbecco’s modified Eagle’s medium (Gibco, Thermo Fisher Scientific, Waltham, MA, USA) supplemented with 10% fetal bovine serum (FBS, Gibco), 2 mmol/L L-glutamine, 50 U/mL penicillin and 50 μg/mL streptomycin (Sigma, St. Louis, MO, USA) in a humidified atmosphere of 95% air and 5% CO2 at 37 °C, and grown to 80% confluence. Prior to cell treatment, complete medium was replaced with serum-reduced medium (i.e., with 2% FBS). Compounds were prepared as a stock solution of 50 mmol/L in DMSO.
Caspase-3 activity and Western blot analysis The activity of caspases-3 was determined in total cell lysates of the SH-SY5Y cells treated as described. […] Following cell treatment for 24 h, cell lysates were prepared, and the caspase-3 activity was assessed using the fluorescent peptide substrate N-acetyl-L-α-aspartyl-L-α-glutamyl-L-valyl-N-[2-oxo-4-(trifluoromethyl)-2H-1-benzopyran-7-yl]-L-α-asparagine (Ac-DEVD-AFC; Bachem). […] Immediately after the addition of the substrate, fluorescence was monitored continuously for 30 min at an excitation wavelength of 405 nm and an emission wavelength of 535 nm using a Tecan Safire[2] fluorescence microplate reader. […]

Data set [4] deals with SH-SY5Y cells. The data set can be described thus: Neuroprotection assay against Aβ1–42, 7-AAD flow cytometry. In kind it is cell-based, human. Particulars: 5 μmol/L compound, 5 μmol/L fibrillar Aβ1–42, 48 h. The procedure: as §1
Neuroprotection assay The neuroprotective effect of compounds on cytotoxic effect of Aβ1–42 was determined with the fluorescent intercalator 7-aminoactinomycin D (7-AAD) assessed by flow cytometry. Prior to cell treatment, the peptide Aβ1–42 (Merck Millipore, Darmstadt, Germany) was dissolved in DMSO at a concentration of 1 mmol/L and was incubated at 100 μmol/L in 1 mol/L HCl at 37 °C for 24 h to induce Aβ aggregation. […] Cells were then analysed for cytotoxicity by flow cytometry on Attune NxT flow cytometer (Thermo Fisher Scientific). The percentage of 7AAD positive (7AADpos) cells was evaluated using FlowJo software (FlowJo, LLC., Ashland, OR, USA).
(In flow cytometry, cells or beads pass a laser one at a time.)

For data set [5], the target named is T1, hBChE. Kind of data set: ChE IC50 determination, method of Ellman, hBChE. In kind it is biochemical. Particulars: for IC50 / remaining activity at 100 µM: after 5 min preincubation; for IC50: read-out: hBChE IC50±SD; for hBChE time-dependency observed: Yes/No: pre-incubation time varied; for remaining activity at 100 µM: residual activity at 100 μmol/L, read-out: hBChE RA±SD (residual activity); for ChE inhibition of the leaving groups: ChEs (hBChE and hAChE). As for the experimental part: (§2) The inhibitory potencies of the compounds against the ChEs were determined using the method of Ellman following the procedure described previously. Briefly, compound stock solutions in DMSO were incubated with Ellman’s reagent and ChEs (final concentrations: 370 μmol/L Ellman’s reagent, approximately 1 nmol/L or 50 pmol/L hBChE or hAChE, respectively) in 0.1 mol/L sodium phosphate pH 8.0 for 5 min at 20 °C. For time-dependency measurements, the pre-incubation time was varied (1, 5, 15, 30 or 60 min). The reactions were started by the addition of the substrate (final concentration, 500 μmol/L butyrylthiocholine iodide or acetylthiocholine iodide for hBChE and hAChE, respectively). The final content of DMSO was always 1%. The increase in absorbance at 412 nm was monitored for 2 min using a 96-well microplate reader (Synergy HT, BioTek Instruments, VT, USA). The initial velocities in the presence (vi) and absence (v0) of the test compounds were calculated. The inhibitory potencies were expressed as the residual activities, according to Eq. (1):(1) RA = vi / v0
(§3) For IC50 determinations, at least seven different concentrations for each compound were used. The IC50 values were obtained by plotting the residual ChE activities against the applied inhibitor concentrations, with the experimental data fitted to a four-parameter logistic function (GraphPad Prism 9.4). Tacrine and donepezil were used as positive controls.

Data set [6] addresses hAChE (Homo sapiens, UniProt P22303). The data set can be described thus: ChE IC50 determination, method of Ellman, hAChE. Particulars: for IC50 / remaining activity at 100 µM: after 5 min preincubation; for IC50: read-out: hAChE IC50±SD; for hAChE time-dependency observed: Yes/No: pre-incubation time varied; for remaining activity at 100 µM: residual activity at 100 μmol/L, read-out: hAChE RA±SD (residual activity). In kind it is biochemical. As for the experimental part:
as §2, §3
For orientation: In Ellman's method for cholinesterases, released thiocholine reacts with DTNB.

Results on ten compounds are retold here after paper PMC12491715 (Acta Pharmaceutica Sinica. B, 2025).

The Ki is the equilibrium dissociation constant of an inhibitor or competing ligand from its target. A low value points to tighter binding. Usually IC50 stands for the concentration at which inhibition is half-maximal.

T1 sequence (P06276 29-602): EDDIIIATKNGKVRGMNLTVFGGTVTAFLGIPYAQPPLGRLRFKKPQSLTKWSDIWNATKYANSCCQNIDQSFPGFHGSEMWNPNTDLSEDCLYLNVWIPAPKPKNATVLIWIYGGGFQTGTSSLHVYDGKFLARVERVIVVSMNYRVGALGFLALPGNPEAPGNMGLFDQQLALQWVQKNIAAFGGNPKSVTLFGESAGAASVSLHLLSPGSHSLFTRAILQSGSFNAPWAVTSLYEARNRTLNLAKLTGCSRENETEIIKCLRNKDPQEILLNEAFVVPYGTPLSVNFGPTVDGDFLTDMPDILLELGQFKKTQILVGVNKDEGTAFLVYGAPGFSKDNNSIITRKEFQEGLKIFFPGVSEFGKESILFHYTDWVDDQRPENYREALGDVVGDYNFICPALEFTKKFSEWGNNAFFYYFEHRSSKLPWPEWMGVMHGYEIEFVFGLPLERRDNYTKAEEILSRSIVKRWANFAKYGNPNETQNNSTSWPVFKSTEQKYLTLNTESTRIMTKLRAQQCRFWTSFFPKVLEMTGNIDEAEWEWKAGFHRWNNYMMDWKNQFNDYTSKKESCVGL
Chain of hAChE (P22303 32-614): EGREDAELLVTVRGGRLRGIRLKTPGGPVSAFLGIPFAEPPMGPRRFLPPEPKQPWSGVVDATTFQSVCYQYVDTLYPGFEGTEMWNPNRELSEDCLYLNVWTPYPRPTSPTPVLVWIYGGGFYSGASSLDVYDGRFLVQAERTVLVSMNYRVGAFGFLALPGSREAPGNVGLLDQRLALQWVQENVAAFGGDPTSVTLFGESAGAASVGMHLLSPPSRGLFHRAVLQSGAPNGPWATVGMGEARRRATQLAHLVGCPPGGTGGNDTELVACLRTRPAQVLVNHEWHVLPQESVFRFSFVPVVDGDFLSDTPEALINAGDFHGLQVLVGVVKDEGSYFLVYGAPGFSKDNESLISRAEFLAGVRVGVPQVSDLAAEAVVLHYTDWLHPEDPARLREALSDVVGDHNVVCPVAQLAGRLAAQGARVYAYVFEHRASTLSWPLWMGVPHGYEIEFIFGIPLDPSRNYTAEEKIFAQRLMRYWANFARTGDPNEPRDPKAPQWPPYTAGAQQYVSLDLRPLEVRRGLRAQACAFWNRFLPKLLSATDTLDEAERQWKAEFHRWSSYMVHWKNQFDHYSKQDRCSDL

The compound `CCC1(c2cn(C(=O)N(C)C)cn2)Cc2ccccc2C1` [Compound 6, 4-(2-Ethylindan-2-yl)-N,N-dimethyl-1H-imidazole-1-carboxamide] returned a Ki in data set [1] of 116 ± 3 nM. In data set [1] (25 °C), the “kcarb, carbamoylation” value was determined as 9.0±2.5 min^–1; the “kdecarb, decarbamoylation” value is 3.59±0.28 ×10^–2 h^–1; the “t1/2, decarbamoylation” value came out at 0.804 ± 0.0625 days; the “ΔG25°C‡, carbamoylation” value is 18.6 ± 0.2 kcal/mol. Moreover, the “t1/2 in aqueous solution” value in data set [2] (during 48 h) is reported as “stable”. Besides, the “caspase-3 activity after Aβ1–42 treatment” value in data set [3] was “significant reduction”. Besides, in data set [4], the “7-AAD-positive cells after Aβ1–42 treatment” value is “significant reduction”. For the same compound, in data set [5], the “selectivity for hBChE over hAChE” value worked out at 2500 fold, the IC50 was 14 ± 2 nM and the “hBChE time-dependency observed: Yes/No” value was “Yes”. Moreover, in data set [6], the IC50 stood at 32800 nM and the “hAChE time-dependency observed: Yes/No” value is listed as “Yes”.

As for `CCC1(c2cn(C(=O)N3CCCCC3)cn2)Cc2ccccc2C1` [Compound 9, (4-(2-Ethylindan-2-yl)-1H-imidazol-1-yl)(piperidin-1-yl)methanone], in data set [5], the IC50 amounted to 2.5 ± 2 nM and the “hBChE time-dependency observed: Yes/No” value was “Yes”. In data set [6], the half-inhibitory concentration (IC50) stood at 7550 ± 2140 nM and the “hAChE time-dependency observed: Yes/No” value is on record as “Yes”.

Regarding `CCC1(c2cn(C(=O)N(C)Cc3ccccc3)cn2)Cc2ccccc2C1` [Compound 10, N-Benzyl-4-(2-ethylindan-2-yl)-N-methyl-1H-imidazole-1-carboxamide], in data set [5], the IC50 came out at 53 ± 10 nM and the “hBChE time-dependency observed: Yes/No” value is recorded as “Yes”. Also, in data set [6], the “hAChE time-dependency observed: Yes/No” value is on record as “Yes” and the remaining activity at 100 µM is 34%.

`CCC1(c2cn(C(=S)N(C)C)cn2)Cc2ccccc2C1` [Compound 11, 4-(2-Ethylindan-2-yl)-N,N-dimethyl-1H-imidazole-1-carbothioamide]: in data set [5], the “hBChE time-dependency observed: Yes/No” value is recorded as “Yes” and the remaining activity at 100 µM came out at 49%. The remaining activity at 100 µM in data set [6] is 69%.

`CCC1(c2cncn2C)Cc2ccccc2C1` [Compound 12, 5-(2-Ethylindan-2-yl)-1-methyl-1H-imidazole]: in data set [5], the “ChE inhibition of the leaving groups” value is listed as “ineffective” and the remaining activity at 100 µM is 67%. Moreover, the remaining activity at 100 µM in data set [6] turned out to be 74%.

As for `CCC1(c2cn(C(=O)N(C)C)c[n+]2C)Cc2ccccc2C1.O=S(=O)([O-])C(F)(F)F` [Compound 13, 1-(Dimethylcarbamoyl)-4-(2-ethylindan-2-yl)-3-methyl-1H-imidazol-3-ium trifluoromethanesulfonate], in data set [2], the “t1/2 in aqueous solution” value was determined as 0.55 days and the k was found to be 0.05236 h–1. Besides, in data set [5], the IC50 was 8.4 ± 4.6 nM and the “hBChE time-dependency observed: Yes/No” value is “Yes”. Also, in data set [6], the IC50 was 3190 ± 400 nM and the “hAChE time-dependency observed: Yes/No” value is “Yes”.

Regarding `CCC1(c2cn[nH]n2)Cc2ccccc2C1` [Compound 14, 4-(2-Ethylindan-2-yl)-2H-1,2,3-triazole], in data set [5], the “ChE inhibition of the leaving groups” value is “ineffective” and the remaining activity at 100 µM came out at 82%. Besides, the remaining activity at 100 µM in data set [6] was found to be 85%.

As to `CCC1(c2cnn(C(=O)N(C)C)n2)Cc2ccccc2C1` [Compound 15, 4-(2-Ethylindan-2-yl)-N,N-dimethyl-2H-1,2,3-triazole-2-carboxamide], in data set [2], the k turned out to be 0.000982 h–1 and the half-life was approximately 29 days. Further, in data set [5], the IC50 is 1.9 ± 0.5 nM and the “hBChE time-dependency observed: Yes/No” value is given as “Yes”. In data set [6], the IC50 was 234 ± 46 nM and the “hAChE time-dependency observed: Yes/No” value is listed as “Yes”.

Consider `CCC1(c2nc[nH]n2)Cc2ccccc2C1` [Compound 16, 3-(2-Ethylindan-2-yl)-1H-1,2,4-triazole], for which, in data set [5], the “ChE inhibition of the leaving groups” value is reported as “ineffective” and the remaining activity at 100 µM was 89%. Also, the remaining activity at 100 µM in data set [6] came to 83%.

For `CCC1(c2ncn(C(=O)N(C)C)n2)Cc2ccccc2C1` [Compound 17, 3-(2-Ethylindan-2-yl)-N,N-dimethyl-1H-1,2,4-triazole-1-carboxamide], in data set [2], the k amounted to 0.000628 h–1 and the half-life was approximately 46 days. For the same compound, in data set [5], the IC50 was found to be 5 ± 1.2 nM and the “hBChE time-dependency observed: Yes/No” value is on record as “Yes”. In data set [6], the IC50 was determined as 2930 ± 1280 nM and the “hAChE time-dependency observed: Yes/No” value is given as “Yes”.
